The results in this text go back to article PMC3967766 (Journal of medicinal chemistry, 2013).

Structures are written as SMILES. Entries after “also recorded” stand apart in the source; their conditions may differ. Like-named read-outs stand apart in the source and are kept apart here. Some results are limits rather than exact numbers.

Data set [1] concerns the target T1, CB2 receptor (Homo sapiens, UniProt P34972). The experiment in a line: cell-based LANCE cAMP assay in CHO cells stably expressing CB2. In general terms: In TR-FRET formats the signal depends on donor and acceptor labels being close together.
The subject of data set [2] is RAW 264.7 cells. Description: RANKL-induced osteoclast formation assay. The settings on record: 5 days; for inhibitory activity on RANKL-induced osteoclast formation: RAW 264.7, RANKL 15 ng/mL; for inhibition rate of osteoclast formation: RANKL 15 ng/mL.
Data set [3] has as its target T1, CB2 receptor. Description: [3H]CP-55,940 radioligand competition binding assay, CB2. On the technique in general: Displacement assays read how much labelled ligand stays bound in the presence of the test substance.
The test system of data set [4] is RAW 264.7 cells. The experiment in a line: MTT cytotoxicity assay on osteoclast precursors. Format: cell-based, mouse. The settings on record: for cell viability versus vehicle control: 1.25 and 2.5 µM; for cell viability: 5 and 10 µM.
The target of data set [5] is CB1 receptor (Homo sapiens, UniProt P21554). Description: [3H]CP-55,940 radioligand competition binding assay, CB1. The following applies: read-out: Ki (CB1); [3H]CP-55,940 competition, CB1 membrane protein.
Chain of CB1 receptor (P21554 whole entry): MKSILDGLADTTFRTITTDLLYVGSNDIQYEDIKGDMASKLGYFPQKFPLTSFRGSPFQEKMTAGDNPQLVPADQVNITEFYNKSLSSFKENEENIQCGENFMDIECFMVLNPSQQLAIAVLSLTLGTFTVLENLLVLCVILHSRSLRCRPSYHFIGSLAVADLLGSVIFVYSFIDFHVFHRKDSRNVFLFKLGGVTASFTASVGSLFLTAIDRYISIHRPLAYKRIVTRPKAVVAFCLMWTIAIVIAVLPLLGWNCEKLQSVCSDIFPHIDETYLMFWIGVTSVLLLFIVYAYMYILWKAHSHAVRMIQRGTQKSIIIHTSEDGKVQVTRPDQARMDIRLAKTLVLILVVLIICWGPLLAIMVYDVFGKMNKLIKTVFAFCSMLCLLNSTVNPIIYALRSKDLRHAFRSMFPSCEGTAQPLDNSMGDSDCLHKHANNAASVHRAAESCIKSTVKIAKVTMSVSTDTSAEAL

T1 sequence (P34972 whole entry): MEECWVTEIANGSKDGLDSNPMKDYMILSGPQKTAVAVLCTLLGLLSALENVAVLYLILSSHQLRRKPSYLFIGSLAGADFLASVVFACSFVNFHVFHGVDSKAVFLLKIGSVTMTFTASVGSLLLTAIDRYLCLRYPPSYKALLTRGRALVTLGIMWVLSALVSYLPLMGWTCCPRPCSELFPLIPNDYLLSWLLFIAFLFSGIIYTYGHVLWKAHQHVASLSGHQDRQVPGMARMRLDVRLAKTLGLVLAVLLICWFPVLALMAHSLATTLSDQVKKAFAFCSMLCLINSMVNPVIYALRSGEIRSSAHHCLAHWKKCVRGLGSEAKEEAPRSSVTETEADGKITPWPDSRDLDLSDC

Turning to `CCCCCCC(C)(C)c1cc(OC)c([C@H]2C=C(CO)[C@H]3C[C@@H]2C3(C)C)c(OC)c1` (stereo in doubt) [HU308, reference compound], in data set [1] (LANCE cAMP assay), the CB2 functional activity entry was “agonists”.

For `CCCCCCC(C)(C)c1ccc([C@@H]2C[C@H](O)CC[C@H]2CCCO)c(O)c1` [CP55940, reference compound], the CB2 functional activity result in data set [1] is recorded as “agonists”.

`Cc1ccc(Cn2nc(C(=O)NC3C4(C)CCC(C4)C3(C)C)cc2-c2ccc(Cl)c(C)c2)cc1` (stereo not drawn) [Compound 5, SR144528, reference compound]: the CB2 functional activity result in data set [1] was “inverse agonists”.

As for `CCN(CC)c1ccc(CN([C@]23C[C@H]4C[C@H](C[C@H](C4)C2)C3)S(=O)(=O)c2ccc(F)cc2)cc1` [Compound 21, N-((3s,5s,7s)-Adamantan-1-yl)-N-(4-(diethylamino)benzyl)-4-fluorobenzenesulfonamide], the CB2 functional activity entry in data set [1] (LANCE cAMP assay) is recorded as “inverse agonists”.

Turning to `CCN(CC)c1ccc(CN([C@]23C[C@H]4C[C@H](C[C@H](C4)C2)C3)S(=O)(=O)c2cccc(C)c2)cc1` [Compound 25, N-((3s,5s,7s)-Adamantan-1-yl)-N-(4-(diethylamino)benzyl)-3-methylbenzenesulfonamide], the “inhibitory activity on RANKL-induced osteoclast formation” value (“inhibitory activity” for short) in data set [2] was “inhibit RANKL-induced osteoclastogenesis in a dose-dependent manner; also recorded: potent inhibitory activity”. Moreover, the Ki (usually a measure of affinity in units of concentration, obtained from inhibition or displacement) in data set [3] stood at 25 nM.

As to `CCN(CC)c1ccc(CN(c2ccc(Cl)cc2)S(=O)(=O)c2ccc(OC)cc2)cc1` [Compound 48, N-(4-Chlorophenyl)-N-(4-(diethylamino)benzyl)-4-methoxybenzenesulfonamide], in data set [1] (LANCE cAMP assay), the CB2 functional activity entry is reported as “inverse agonists”. Moreover, the “inhibition rate of osteoclast formation” value in data set [2] (1 µM) is “good inhibition activity”. Also, in data set [2], the “inhibitory activity” value is “inhibit RANKL-induced osteoclastogenesis in a dose-dependent manner; also recorded: potent inhibitory activity”. For the same molecule, in data set [4] (3 days, MTT), the “cell viability versus vehicle control” value is recorded as “not significantly affected” and the cell viability result is “only some effects on cell viability”.

As to `CCN(CC)c1ccc(CN(C(=O)Cc2ccc(Cl)cc2)c2ccc(Cl)cc2)cc1` [Compound 52, N,2-bis(4-Chlorophenyl)-N-(4-(diethylamino)benzyl)acetamide], the Ki in data set [5] is > 20000 nM.

In the case of `CCN(CC)c1ccc(CN(c2ccc(C)cc2)S(=O)(=O)c2ccccc2)cc1` [Compound 54, N-(4-(Diethylamino)benzyl)-N-(p-tolyl)benzenesulfonamide], the CB2 functional activity entry in data set [1] (LANCE cAMP assay) is “inverse agonists”.

Turning to `CCN(CC)c1ccc(CN(c2ccc(C)cc2)S(=O)(=O)c2ccc(OC)cc2)cc1` [Compound 57, N-(4-(Diethylamino)benzyl)-4-methoxy-N-(p-tolyl)benzenesulfonamide], the CB2 functional activity result in data set [1] (LANCE cAMP assay) was “inverse agonists”. The “inhibition rate of osteoclast formation” value in data set [2] (0.1 µM) was “strongest inhibition activity”. For the same molecule, in data set [2] (1 µM), the “inhibition rate of osteoclast formation” value was “good inhibition activity”. Moreover, in data set [2], the “inhibitory activity” value is “potent inhibitory activity; also recorded: inhibit RANKL-induced osteoclastogenesis in a dose-dependent manner”. For the same molecule, the “effect on cell viability” value in data set [4] (5 µM, 3 days, MTT) is given as “only slight effect on cell viability”. Moreover, in data set [4] (3 days, MTT), the “cell viability versus vehicle control” value is “not significantly affected” and the cell viability result was “only some effects on cell viability”. Further, the “cytotoxic effects on RAW 264.7” value in data set [4] (cell viability test, overall) is reported as “very low cytotoxic effects”.
